Assay results: US5843889A, “Glycopeptide antibiotic derivatives” (Eli Lilly and Company, priority 1997, dated 1998)
Values after ≈ are worked out from the molar mass of the structure shown.

What was measured:
Assay in all cases: MIC, standard broth micro-dilution assay
Format in all cases: cell-based
[1] = system: Entercoccus gallinarum 245
Procedure: (§1) The formula I compounds have in vitro and in vivo activity against Gram-positive pathogenic bacteria. The MIC's were determined using a standard broth micro-dilution assay.

Entercoccus faecalis 276 = system: Entercoccus faecalis 276
Procedure: as §1

[2] = system: Entercoccus faecalis 2041
Procedure: as §1

[3] = system: Staphylococcus aureus SA1199
Procedure: The MIC's were determined using a standard broth micro-dilution assay.

SMILES | MIC [1] [µg/mL] | MIC (Entercoccus faecalis 276) [µg/mL] | MIC [2] [µg/mL] | MIC [3] [µg/mL]
CNC(CC(C)C)C(=O)NC1C(=O)NC(CC(N)=O)C(=O)NC2C(=O)NC3C(=O)NC(C(=O)NC(C(=O)O)c4cc(O)cc(O)c4-c4cc3ccc4O)C(OC3CC(C)(N)C(O)C(C)O3)c3ccc(c(Cl)c3)Oc3cc2cc(c3OC2OC(CO)C(O)C(O)C2OC2CC(C)(NCC3CCC(Cc4ccccc4)CC3)C(O)C(C)O2)Oc2ccc(cc2Cl)C1O (stereo not drawn) [Compound 241, 4-[benzyl]cyclohexylmethyl] | ≤ 0.06 | ≤ 0.06 | ≤ 0.06 | 
CNC(CC(C)C)C(=O)NC1C(=O)NC(CC(N)=O)C(=O)NC2C(=O)NC3C(=O)NC(C(=O)NC(C(=O)O)c4cc(O)cc(O)c4-c4cc3ccc4O)C(OC3CC(C)(N)C(O)C(C)O3)c3ccc(c(Cl)c3)Oc3cc2cc(c3OC2OC(CO)C(O)C(O)C2OC2CC(C)(NCc3cc(C)cs3)C(O)C(C)O2)Oc2ccc(cc2Cl)C1O (stereo not drawn) [Compound 66, 3-methyl-5-thienylmethyl] | 8 (≈ 4.7 µM) | ≤ 0.06 | ≤ 0.06 | 
CCOc1ccc2ccccc2c1CNC1(C)CC(OC2C(Oc3c4cc5cc3Oc3ccc(cc3Cl)C(OC3CC(C)(N)C(O)C(C)O3)C3NC(=O)C(NC(=O)C5NC(=O)C(CC(N)=O)NC(=O)C(NC(=O)C(CC(C)C)NC)C(O)c5ccc(c(Cl)c5)O4)c4ccc(O)c(c4)-c4c(O)cc(O)cc4C(C(=O)O)NC3=O)OC(CO)C(O)C2O)OC(C)C1O (stereo not drawn) [Compound 60, 2-ethoxy-1-naphthylmethyl] | 16 (≈ 9.01 µM) | 0.5 (≈ 0.281 µM) |  | 0.5 (≈ 0.281 µM)
CNC(CC(C)C)C(=O)NC1C(=O)NC(CC(N)=O)C(=O)NC2C(=O)NC3C(=O)NC(C(=O)NC(C(=O)O)c4cc(O)cc(O)c4-c4cc3ccc4O)C(OC3CC(C)(N)C(O)C(C)O3)c3ccc(c(Cl)c3)Oc3cc2cc(c3OC2OC(CO)C(O)C(O)C2OC2CC(C)(NCc3cccc(Oc4cccc(C(F)(F)F)c4)c3)C(O)C(C)O2)Oc2ccc(cc2Cl)C1O (stereo not drawn) [Compound 203] | 2 (≈ 1.09 µM) | 0.5 (≈ 0.271 µM) | 0.25 (≈ 0.136 µM) | 
CNC(CC(C)C)C(=O)NC1C(=O)NC(CC(N)=O)C(=O)NC2C(=O)NC3C(=O)NC(C(=O)NC(C(=O)O)c4cc(O)cc(O)c4-c4cc3ccc4O)C(OC3CC(C)(N)C(O)C(C)O3)c3ccc(c(Cl)c3)Oc3cc2cc(c3OC2OC(CO)C(O)C(O)C2OC2CC(C)(NCc3cccc4ccccc34)C(O)C(C)O2)Oc2ccc(cc2Cl)C1O (stereo not drawn) [Compound 3, 1-naphthylmethyl] | ≤ 0.06 | ≤ 0.06 | ≤ 0.06 | 
CNC(CC(C)C)C(=O)NC1C(=O)NC(CC(N)=O)C(=O)NC2C(=O)NC3C(=O)NC(C(=O)NC(C(=O)O)c4cc(O)cc(O)c4-c4cc3ccc4O)C(OC3CC(C)(N)C(O)C(C)O3)c3ccc(c(Cl)c3)Oc3cc2cc(c3OC2OC(CO)C(O)C(O)C2OC2CC(C)(NCc3ccc(Oc4ccc(Cl)cc4)cc3)C(O)C(C)O2)Oc2ccc(cc2Cl)C1O (stereo not drawn) [Compound 240, 4-[4-chlorophenoxy]benzyl] | 2 (≈ 1.11 µM) | 0.5 (≈ 0.276 µM) | ≤ 0.06 | 
CNC(CC(C)C)C(=O)NC1C(=O)NC(CC(N)=O)C(=O)NC2C(=O)NC3C(=O)NC(C(=O)NC(C(=O)O)c4cc(O)cc(O)c4-c4cc3ccc4O)C(OC3CC(C)(N)C(O)C(C)O3)c3ccc(c(Cl)c3)Oc3cc2cc(c3OC2OC(CO)C(O)C(O)C2OC2CC(C)(NCc3ccc(-c4cccc(C)c4)cc3)C(O)C(C)O2)Oc2ccc(cc2Cl)C1O (stereo not drawn) [Compound 224, 4-[3-methylphenyl]benzyl] | 0.5 (≈ 0.282 µM) | ≤ 0.06 | ≤ 0.06 | 
CNC(CC(C)C)C(=O)NC1C(=O)NC(CC(N)=O)C(=O)NC2C(=O)NC3C(=O)NC(C(=O)NC(C(=O)O)c4cc(O)cc(O)c4-c4cc3ccc4O)C(OC3CC(C)(N)C(O)C(C)O3)c3ccc(c(Cl)c3)Oc3cc2cc(c3OC2OC(CO)C(O)C(O)C2OC2CC(C)(NCCCCCCCCCC#Cc3ccccc3)C(O)C(C)O2)Oc2ccc(cc2Cl)C1O (stereo not drawn) [Compound 236, 11-phenyl-10-undecynyl] | 4 (≈ 2.2 µM) | 2 (≈ 1.1 µM) | 1 (≈ 0.55 µM) | 
CNC(CC(C)C)C(=O)NC1C(=O)NC(CC(N)=O)C(=O)NC2C(=O)NC3C(=O)NC(C(=O)NC(C(=O)O)c4cc(O)cc(O)c4-c4cc3ccc4O)C(OC3CC(C)(N)C(O)C(C)O3)c3ccc(c(Cl)c3)Oc3cc2cc(c3OC2OC(CO)C(O)C(O)C2OC2CC(C)(NCc3ccc(N(C)c4ccccc4)cc3)C(O)C(C)O2)Oc2ccc(cc2Cl)C1O (stereo not drawn) [Compound 178, 4-[N-methylanilino]benzyl] | 2 (≈ 1.12 µM) | 0.5 (≈ 0.28 µM) | ≤ 0.06 | 
CNC(CC(C)C)C(=O)NC1C(=O)NC(CC(N)=O)C(=O)NC2C(=O)NC3C(=O)NC(C(=O)NC(C(=O)O)c4cc(O)cc(O)c4-c4cc3ccc4O)C(OC3CC(C)(N)C(O)C(C)O3)c3ccc(c(Cl)c3)Oc3cc2cc(c3OC2OC(CO)C(O)C(O)C2OC2CC(C)(NCc3ccc(OC)c(OCC4CCCCC4)c3)C(O)C(C)O2)Oc2ccc(cc2Cl)C1O (stereo not drawn) [Compound 142, 3-[cyclohexylmethoxy]-4-methoxybenzyl] | 1 (≈ 0.548 µM) | 1 (≈ 0.548 µM) | ≤ 0.06 | 
CNC(CC(C)C)C(=O)NC1C(=O)NC(CC(N)=O)C(=O)NC2C(=O)NC3C(=O)NC(C(=O)NC(C(=O)O)c4cc(O)cc(O)c4-c4cc3ccc4O)C(OC3CC(C)(N)C(O)C(C)O3)c3ccc(c(Cl)c3)Oc3cc2cc(c3OC2OC(CO)C(O)C(O)C2OC2CC(C)(NCc3ccc(-c4ccccc4)cc3F)C(O)C(C)O2)Oc2ccc(cc2Cl)C1O (stereo not drawn) [Compound 206, 4-phenyl-2-fluorobenzyl] | 1 (≈ 0.563 µM) | ≤ 0.06 | 0.25 (≈ 0.141 µM) | 
CNC(CC(C)C)C(=O)NC1C(=O)NC(CC(N)=O)C(=O)NC2C(=O)NC3C(=O)NC(C(=O)NC(C(=O)O)c4cc(O)cc(O)c4-c4cc3ccc4O)C(OC3CC(C)(N)C(O)C(C)O3)c3ccc(c(Cl)c3)Oc3cc2cc(c3OC2OC(CO)C(O)C(O)C2OC2CC(C)(NCCc3ccccc3OCc3ccccc3)C(O)C(C)O2)Oc2ccc(cc2Cl)C1O (stereo not drawn) [Compound 59, 2-benzyloxyphenethyl] | 1 (≈ 0.555 µM) |  | 0.5 (≈ 0.277 µM) | ≤ 0.06
CNC(CC(C)C)C(=O)NC1C(=O)NC(CC(N)=O)C(=O)NC2C(=O)NC3C(=O)NC(C(=O)NC(C(=O)O)c4cc(O)cc(O)c4-c4cc3ccc4O)C(OC3CC(C)(N)C(O)C(C)O3)c3ccc(c(Cl)c3)Oc3cc2cc(c3OC2OC(CO)C(O)C(O)C2OC2CC(C)(NCc3ccc(OC(F)F)cc3)C(O)C(C)O2)Oc2ccc(cc2Cl)C1O (stereo not drawn) [Compound 72, 4-difluormethoxybenzyl] | 4 (≈ 2.29 µM) | ≤ 0.06 | ≤ 0.06 | 
CNC(CC(C)C)C(=O)NC1C(=O)NC(CC(N)=O)C(=O)NC2C(=O)NC3C(=O)NC(C(=O)NC(C(=O)O)c4cc(O)cc(O)c4-c4cc3ccc4O)C(OC3CC(C)(N)C(O)C(C)O3)c3ccc(c(Cl)c3)Oc3cc2cc(c3OC2OC(CO)C(O)C(O)C2OC2CC(C)(NCc3c4c(cc5ccccc35)CCCC4)C(O)C(C)O2)Oc2ccc(cc2Cl)C1O (stereo not drawn) [Compound 156, 1,2,3,4,-tetrahydro-9-anthranylmethyl] | 2 (≈ 1.12 µM) | 2 (≈ 1.12 µM) | 0.5 (≈ 0.28 µM) | 
CNC(CC(C)C)C(=O)NC1C(=O)NC(CC(N)=O)C(=O)NC2C(=O)NC3C(=O)NC(C(=O)NC(C(=O)O)c4cc(O)cc(O)c4-c4cc3ccc4O)C(OC3CC(C)(N)C(O)C(C)O3)c3ccc(c(Cl)c3)Oc3cc2cc(c3OC2OC(CO)C(O)C(O)C2OC2CC(C)(NCCCCCCCCOc3ccc(OC)cc3)C(O)C(C)O2)Oc2ccc(cc2Cl)C1O (stereo not drawn) [Compound 200, 8-[4-methoxyphenoxy]octyl] | 2 (≈ 1.09 µM) | 0.5 (≈ 0.274 µM) | ≤ 0.06 | 
CNC(CC(C)C)C(=O)NC1C(=O)NC(CC(N)=O)C(=O)NC2C(=O)NC3C(=O)NC(C(=O)NC(C(=O)O)c4cc(O)cc(O)c4-c4cc3ccc4O)C(OC3CC(C)(N)C(O)C(C)O3)c3ccc(c(Cl)c3)Oc3cc2cc(c3OC2OC(CO)C(O)C(O)C2OC2CC(C)(NCc3ccc(-c4ccc(C#N)cc4)cc3)C(O)C(C)O2)Oc2ccc(cc2Cl)C1O (stereo not drawn) [Compound 231, 4-[4-cyanophenyl]benzyl] | 0.5 (≈ 0.28 µM) | ≤ 0.06 | ≤ 0.06 | 
CNC(CC(C)C)C(=O)NC1C(=O)NC(CC(N)=O)C(=O)NC2C(=O)NC3C(=O)NC(C(=O)NC(C(=O)O)c4cc(O)cc(O)c4-c4cc3ccc4O)C(OC3CC(C)(N)C(O)C(C)O3)c3ccc(c(Cl)c3)Oc3cc2cc(c3OC2OC(CO)C(O)C(O)C2OC2CC(C)(NCc3ccc(OS(=O)(=O)c4c(C)c(C)c(C)c(C)c4C)cc3)C(O)C(C)O2)Oc2ccc(cc2Cl)C1O (stereo not drawn) [Compound 173, 4-[[2,3,4,5,6-pentamethyl]phenylsulfonyloxy]benzyl] | 4 (≈ 2.1 µM) | 2 (≈ 1.05 µM) | 0.5 (≈ 0.262 µM) | 
CCOC(c1ccccc1)c1ccc(CNC2(C)CC(OC3C(Oc4c5cc6cc4Oc4ccc(cc4Cl)C(OC4CC(C)(N)C(O)C(C)O4)C4NC(=O)C(NC(=O)C6NC(=O)C(CC(N)=O)NC(=O)C(NC(=O)C(CC(C)C)NC)C(O)c6ccc(c(Cl)c6)O5)c5ccc(O)c(c5)-c5c(O)cc(O)cc5C(C(=O)O)NC4=O)OC(CO)C(O)C3O)OC(C)C2O)cc1 (stereo not drawn) [Compound 126] | 2 (≈ 1.1 µM) | 1 (≈ 0.55 µM) | ≤ 0.06 | 
C=CCCCCNC1(C)CC(OC2C(Oc3c4cc5cc3Oc3ccc(cc3Cl)C(OC3CC(C)(N)C(O)C(C)O3)C3NC(=O)C(NC(=O)C5NC(=O)C(CC(N)=O)NC(=O)C(NC(=O)C(CC(C)C)NC)C(O)c5ccc(c(Cl)c5)O4)c4ccc(O)c(c4)-c4c(O)cc(O)cc4C(C(=O)O)NC3=O)OC(CO)C(O)C2O)OC(C)C1O (stereo not drawn) [Compound 217, 5-hexenyl] | 8 (≈ 4.78 µM) | ≤ 0.06 | ≤ 0.06 | 
CNC(CC(C)C)C(=O)NC1C(=O)NC(CC(N)=O)C(=O)NC2C(=O)NC3C(=O)NC(C(=O)NC(C(=O)O)c4cc(O)cc(O)c4-c4cc3ccc4O)C(OC3CC(C)(N)C(O)C(C)O3)c3ccc(c(Cl)c3)Oc3cc2cc(c3OC2OC(CO)C(O)C(O)C2OC2CC(C)(NCc3cc4ccccc4c4ccccc34)C(O)C(C)O2)Oc2ccc(cc2Cl)C1O (stereo not drawn) [Compound 11, 9-phenanthranylmethyl] | ≤ 0.06 | 1 (≈ 0.561 µM) | 0.5 (≈ 0.28 µM) | 
